The test system of one assay is PSN1. The assay can be described thus: Cytotoxicity against human PSN1 cells after 96 hrs by ATP-lite luminescence assay. The format is functional, cell-based. The settings on record: PSN1, 96 h.
In assay [1] the target is T1, Tyrosine-protein kinase Mer (Homo sapiens, UniProt Q12866).
T1 sequence (Q12866 whole entry): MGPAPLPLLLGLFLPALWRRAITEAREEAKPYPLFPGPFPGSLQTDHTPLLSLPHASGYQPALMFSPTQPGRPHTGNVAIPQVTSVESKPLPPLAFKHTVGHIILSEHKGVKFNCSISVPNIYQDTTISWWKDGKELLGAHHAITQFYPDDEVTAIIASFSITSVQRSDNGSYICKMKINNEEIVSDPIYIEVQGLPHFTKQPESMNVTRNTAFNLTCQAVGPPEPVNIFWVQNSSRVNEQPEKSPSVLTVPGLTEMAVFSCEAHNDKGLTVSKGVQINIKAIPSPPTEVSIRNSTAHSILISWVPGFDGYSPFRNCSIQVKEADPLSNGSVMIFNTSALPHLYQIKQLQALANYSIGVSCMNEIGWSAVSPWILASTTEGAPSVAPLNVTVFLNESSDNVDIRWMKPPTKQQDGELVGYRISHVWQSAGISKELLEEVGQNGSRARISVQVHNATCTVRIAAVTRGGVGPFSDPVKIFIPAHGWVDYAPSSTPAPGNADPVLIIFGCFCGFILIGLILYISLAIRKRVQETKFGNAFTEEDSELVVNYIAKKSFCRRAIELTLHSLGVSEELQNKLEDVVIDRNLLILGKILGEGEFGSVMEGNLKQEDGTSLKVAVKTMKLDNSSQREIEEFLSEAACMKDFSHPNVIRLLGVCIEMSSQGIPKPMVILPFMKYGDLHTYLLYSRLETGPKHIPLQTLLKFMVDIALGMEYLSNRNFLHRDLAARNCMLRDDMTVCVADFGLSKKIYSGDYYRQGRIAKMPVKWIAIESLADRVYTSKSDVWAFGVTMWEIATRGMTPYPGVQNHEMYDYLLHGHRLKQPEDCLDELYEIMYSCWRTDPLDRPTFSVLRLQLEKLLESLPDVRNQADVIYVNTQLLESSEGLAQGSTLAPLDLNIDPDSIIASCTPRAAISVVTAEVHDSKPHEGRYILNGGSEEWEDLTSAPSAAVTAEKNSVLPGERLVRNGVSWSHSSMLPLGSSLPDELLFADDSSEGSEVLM
The assay can be described thus: Inhibition of Mer kinase.

Assay [2] addresses T2, Tyrosine-protein kinase receptor UFO (Homo sapiens, UniProt P30530).
T2 sequence (P30530 whole entry): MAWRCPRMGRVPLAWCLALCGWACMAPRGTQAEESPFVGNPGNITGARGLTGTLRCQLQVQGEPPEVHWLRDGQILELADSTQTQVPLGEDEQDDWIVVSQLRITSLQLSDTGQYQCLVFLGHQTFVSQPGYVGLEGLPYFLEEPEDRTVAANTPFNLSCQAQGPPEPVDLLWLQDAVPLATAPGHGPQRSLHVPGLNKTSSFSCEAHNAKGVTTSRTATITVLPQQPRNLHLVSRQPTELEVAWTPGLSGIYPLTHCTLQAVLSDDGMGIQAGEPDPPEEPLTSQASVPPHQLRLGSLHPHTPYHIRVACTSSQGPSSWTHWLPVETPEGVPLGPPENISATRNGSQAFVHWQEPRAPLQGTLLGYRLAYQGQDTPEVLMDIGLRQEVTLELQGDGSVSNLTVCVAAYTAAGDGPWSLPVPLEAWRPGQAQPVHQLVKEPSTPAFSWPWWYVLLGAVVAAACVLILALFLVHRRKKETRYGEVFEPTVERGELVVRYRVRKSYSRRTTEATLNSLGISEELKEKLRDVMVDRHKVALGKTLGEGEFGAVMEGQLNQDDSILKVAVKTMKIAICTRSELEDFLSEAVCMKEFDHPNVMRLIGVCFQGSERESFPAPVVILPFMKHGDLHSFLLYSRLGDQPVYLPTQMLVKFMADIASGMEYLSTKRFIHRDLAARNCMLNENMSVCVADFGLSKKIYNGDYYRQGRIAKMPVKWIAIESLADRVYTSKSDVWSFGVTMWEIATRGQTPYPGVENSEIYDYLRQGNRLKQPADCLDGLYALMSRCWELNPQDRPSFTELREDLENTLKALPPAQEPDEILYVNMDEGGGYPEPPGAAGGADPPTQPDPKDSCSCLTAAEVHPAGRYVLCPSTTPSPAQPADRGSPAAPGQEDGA
Description: Inhibition of human recombinant His-tagged AXL kinase using fluorescein-labelled poly-GT as substrate after 60 mins by TR-FRET analysis

For the next assay, the target named is T3, Aurora kinase A (Homo sapiens, UniProt O14965).
T3 sequence (O14965 whole entry): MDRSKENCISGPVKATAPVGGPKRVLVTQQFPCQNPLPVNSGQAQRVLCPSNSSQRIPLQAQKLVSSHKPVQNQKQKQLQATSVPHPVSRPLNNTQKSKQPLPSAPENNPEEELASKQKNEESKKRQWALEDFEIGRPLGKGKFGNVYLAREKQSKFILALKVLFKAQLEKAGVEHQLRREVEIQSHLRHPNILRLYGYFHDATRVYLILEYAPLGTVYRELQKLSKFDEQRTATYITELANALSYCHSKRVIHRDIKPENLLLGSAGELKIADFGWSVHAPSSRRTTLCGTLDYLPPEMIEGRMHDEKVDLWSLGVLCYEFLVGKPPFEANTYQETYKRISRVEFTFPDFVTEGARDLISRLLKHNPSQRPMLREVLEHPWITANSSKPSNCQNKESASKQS
The assay can be described thus: Inhibition of Aurora A.

Another assay addresses Aurora kinase B (Homo sapiens, UniProt Q96GD4). The experiment in a line: Inhibition of Aurora B.

A word on the IC50: it is the concentration at which inhibition is half-maximal.

Chain of Aurora kinase B (Q96GD4 whole entry): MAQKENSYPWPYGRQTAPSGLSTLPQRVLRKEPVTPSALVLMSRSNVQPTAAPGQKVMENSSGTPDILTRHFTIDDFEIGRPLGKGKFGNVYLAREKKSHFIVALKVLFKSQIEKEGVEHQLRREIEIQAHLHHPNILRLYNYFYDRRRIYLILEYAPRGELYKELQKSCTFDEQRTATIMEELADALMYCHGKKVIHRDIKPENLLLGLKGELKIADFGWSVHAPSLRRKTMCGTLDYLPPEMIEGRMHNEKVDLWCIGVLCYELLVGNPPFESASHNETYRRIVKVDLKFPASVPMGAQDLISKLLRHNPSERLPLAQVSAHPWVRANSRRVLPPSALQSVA

With `CN1CCN(Cc2ccc(Nc3ncc(Cl)c(Nc4ccccc4C(=O)NC4CC4)n3)cc2)CC1`, in the assay with PSN1, the IC50 worked out at 64 nM.

In assay [1], `CC(C)n1cnc2c(Nc3cccc(Cl)c3)nc(NCCO)nc21` showed a half-maximal inhibitory concentration (IC50) of 11300 nM. Regarding `CN1CCN(Cc2ccc(Nc3ncc(C(F)(F)F)c(Nc4ccccc4C(=O)N(C)C)n3)cc2)CC1`, in assay [2], the IC50 was above 10000 nM. Take `CN1CCN(Cc2ccc(Nc3ncc(Cl)c(Nc4ccccc4S(=O)(=O)N4CCCC4)n3)cc2)CC1`: the values for the concentration for half-maximal inhibition (IC50) (with PSN1; in assay [2]) were 2 nM and 19 nM, respectively. With `CN1CCN(Cc2ccc(Nc3ncc(Cl)c(-c4ccc(F)cc4S(=O)(=O)N4CCCC4)n3)cc2)CC1`, the half-maximal inhibitory concentration (IC50) worked out at 192 nM with PSN1 and 91 nM in assay [2]. Take `CN1CCN(Cc2ccc(Nc3ncc(Cl)c(Nc4ccccc4C(=O)N4CCCC4)n3)cc2)CC1`: in the assay on PSN1, the 50% inhibitory concentration (IC50) was found to be 21 nM.

`CN1CCN(Cc2ccc(Nc3ncc(C4CC4)c(-c4ccc(F)c(Cl)c4)n3)cc2)CC1` came in with an IC50 in assay [2] of 3400 nM.

In turn, `Cc1cnc(Nc2ccc(N3CCN(C)CC3)c(F)c2)nc1-c1ccc(F)cc1` had a half-maximal inhibitory concentration (IC50) in assay [2] of 6100 nM. In turn, `CN1CCN(Cc2ccc(Nc3ncc(Cl)c(Nc4ccccc4C(=O)N(C)C)n3)cc2)CC1` displayed an IC50 in the assay on PSN1 of 70 nM. In assay [2], `CN1CCN(c2ccc(Nc3ncc(Cl)c(Nc4ccccc4S(=O)(=O)N(C)C)n3)cc2)CC1` came in with an IC50 of 1730 nM. The same measure, in the same setting: in the case of `Cc1cnc(Nc2ccc(N3CCN(C)CC3)c(F)c2)nc1-c1ccc(F)c(Cl)c1` it was 2800 nM; in that of `CN1CCN(Cc2ccc(Nc3ncc(Cl)c(-c4ccc(F)cc4S(=O)(=O)N(C)C)n3)cc2)CC1`, 82 nM. Consider `CN1CCN(Cc2ccc(Nc3ncc(Cl)c(Nc4ccccc4S(=O)(=O)N(C)C)n3)cc2)CC1` [DUBERMATINIB], for which the IC50 on Aurora kinase A was 3 nM; against Aurora kinase B it was 12.4 nM. The compound `Cc1cnc(Nc2ccc(OCCN3CCCCC3)cc2)nc1-c1ccc(F)c(Cl)c1` displayed a half-inhibitory concentration (IC50) in assay [2] of 1630 nM. In the assay with PSN1, `CN1CCN(Cc2ccc(Nc3ncc(Cl)c(Nc4ccc(F)cc4S(=O)(=O)N4CCCC4)n3)cc2)CC1` returned an IC50 of 9 nM.

(Values after ChEMBL document CHEMBL2021829, “Design, Synthesis and Biological Evaluation of a Series of Novel Axl Kinase Inhibitors” (ACS Med Chem Lett, 2011).)
